“And” between values parts separate entries of the source, which are not always exact repeats. Equal values may be shown once.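 Dose response: 5 concentrations. Exposure: 48 h. Format: 96-well plates. Endpoint: linear interpolation; highest concentration if not reached. GI50 is the concentration that inhibits growth by half. TGI is the concentration that stops growth completely.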 Where a SMILES comes first, the peptide text is derived from it. [ ]: non-standard residue; d: D form. NMeY = CN[C@@H](Cc1ccc(O)cc1)C(=O)O; dNMeF = CN[C@H](Cc1ccccc1)C(=O)O; Sar = CNCC(=O)O
Experiments:
Assay in all cases: NCI anticancer screen, dose series, 48 h
[1] = tested on: SW-620 colon
[2] = tested on: SF-268 CNS
[3] = tested on: TK-10 renal
[4] = tested on: DU-145 prostate
[5] = tested on: UO-31 renal
[6] = tested on: HCT-15 colon
[7] = tested on: ACHN renal
[8] = tested on: SNB-19 CNS
[9] = tested on: A498 renal
[10] = tested on: HS 578T breast

`C/C(=N\NC(=O)c1ccccc1O)c1cccc(/C(C)=N/NC(=O)c2ccccc2O)n1` gave a GI50 [1] of 0.632 µM, a TGI [1] of over 100 µM and a GI50 [2] of 0.28 µM. The TGI [2] was 56.5 µM and > 100 µM, the GI50 [3] was 0.614 µM and the TGI [3] was over 80.6 µM. The GI50 [4] was 10.7 µM, the TGI [4] was > 100 µM and 31.3 µM and the TGI [5] was 52.5 µM and > 57.4 µM. It also gave a GI50 [6] of 0.568 µM, a TGI [6] of over 100 µM and a GI50 [7] of 0.668 µM. For the same compound, the TGI [7] was 50.5 µM and > 62.9 µM, the TGI [8] was 74.2 µM and > 100 µM and the GI50 [9] was 2.42 µM. For the same compound, the TGI [9] was > 100 µM and 16.7 µM, the GI50 [10] was over 100 µM and the TGI [10] was over 100 µM.

`Nc1nc(N)c2c(ccc3nccc32)[nH]1` gave a GI50 [1] of 1.03 µM, a TGI [1] of over 77.3 µM and a GI50 [2] of 2.11 µM. The TGI [2] was 56.2 µM, the GI50 [3] was 17.4 µM and the TGI [3] was over 86.8 µM. For the same compound, the GI50 [4] was 8.61 µM, the TGI [4] was 57.4 µM and the GI50 [5] was 4.14 µM. It also gave a TGI [5] of 31.1 µM, a GI50 [6] of 2.35 µM and a TGI [6] of over 100 µM. For the same compound, the GI50 [7] was 4.24 µM, the TGI [7] was 36 µM and the GI50 [8] was 7.98 µM. It also gave a TGI [8] of over 100 µM, a GI50 [9] of 18.3 µM and a TGI [9] of 98.3 µM. It also gave a GI50 [10] of over 21.8 µM and a TGI [10] of over 64.7 µM.

For `CN(C)C(=O)c1cc2cnc(Nc3ccc(-c4csc5c(=O)cc(N6CCNCC6)oc45)cc3)nc2n1C1CCCC1`, the GI50 [1] was 0.418 µM, the TGI [1] was 2.09 µM and the GI50 [2] was 0.638 µM. The TGI [2] was 4.09 µM, the GI50 [3] was 1.34 µM and the TGI [3] was 14.6 µM. For the same compound, the GI50 [4] was 1.01 µM, the TGI [4] was 2.5 µM and the GI50 [5] was 1.64 µM. For the same compound, the TGI [5] was 4.58 µM, the GI50 [6] was 1.84 µM and the TGI [6] was 5.79 µM. It also gave a GI50 [7] of 1.78 µM, a TGI [7] of 5.51 µM and a GI50 [8] of 0.551 µM. It also gave a TGI [8] of 2.62 µM, a GI50 [9] of 1.24 µM and a TGI [9] of 3.01 µM. It also gave a GI50 [10] of 0.943 µM and a TGI [10] of 4.39 µM.

Work on `Cc1cc2c3ccccc3ccc2[n+]2ccccc12` yielded a GI50 [1] of 2.99 µM, a TGI [1] of 32.8 µM and a GI50 [2] of 0.839 µM. For the same compound, the TGI [2] was 3.92 µM, the GI50 [3] was 19.7 µM and the TGI [3] was over 86.8 µM. It also gave a GI50 [4] of 9.02 µM, a TGI [4] of 40.4 µM and a GI50 [5] of 3.73 µM. The TGI [5] was over 100 µM, the GI50 [6] was 37.9 µM and the TGI [6] was over 100 µM. The GI50 [7] was 29.4 µM, the TGI [7] was over 100 µM and the GI50 [8] was 2.11 µM. The TGI [8] was 8.72 µM, the GI50 [9] was 5.43 µM and the TGI [9] was over 100 µM. It also gave a GI50 [10] of 2.6 µM and a TGI [10] of 17.2 µM.

For `Nc1ncnc2c(C3OC(CO)C(O)C3O)[nH]nc12` (stereo unspecified), the GI50 [1] was 0.0592 µM, the TGI [1] was 3.31 µM and 9.17 µM and the GI50 [2] was 0.204 µM and 0.452 µM. The TGI [2] was 14 µM and 35.9 µM, the GI50 [3] was 0.0778 µM and the TGI [3] was 2.48 µM. The GI50 [4] was 0.0125 µM, the TGI [4] was 0.278 µM and the GI50 [5] was 0.0619 µM. For the same compound, the GI50 [6] was 0.0383 µM and 0.0444 µM, the TGI [6] was 0.156 µM and the GI50 [7] was 0.0944 µM. The GI50 [8] was 0.138 µM, the TGI [8] was 3.68 µM and 24.8 µM and the GI50 [9] was 0.203 µM. The TGI [9] was 3.98 µM and 4.78 µM, the GI50 [10] was 0.533 µM and the TGI [10] was 5.34 µM.

For `O=C1c2cc3c(cc2[C@@H]2[C@H]1c1ccc([N+](=O)[O-])cc1C(=O)N2CCCCl)OCO3`, the GI50 [1] was under 0.01 µM, the TGI [1] was over 100 µM and the GI50 [2] was under 0.01 µM. It also gave a GI50 [3] of 0.0868 µM, a GI50 [4] of under 0.01 µM and a GI50 [5] of under 0.01 µM. The GI50 [6] was under 0.0145 µM, the TGI [6] was over 40.6 µM and the GI50 [7] was under 0.01 µM. The TGI [7] was under 0.01 µM, the GI50 [8] was under 0.0139 µM and the TGI [8] was over 100 µM. For the same compound, the GI50 [9] was under 0.01 µM, the TGI [9] was under 0.01 µM and the GI50 [10] was 0.174 µM. The TGI [10] was 61.5 µM.

`N#CSCc1c(Cl)cccc1Cl` was tested, and the GI50 [1] was 0.76 µM, the TGI [1] was over 46.3 µM and the GI50 [2] was 4.9 µM. The TGI [2] was over 65.5 µM, the GI50 [3] was 4.51 µM and the TGI [3] was over 29.2 µM. For the same compound, the GI50 [4] was 2.74 µM, the TGI [4] was 5.71 µM and the GI50 [5] was 4.41 µM. The TGI [5] was 27.6 µM, the GI50 [6] was 2.96 µM and the TGI [6] was over 100 µM. For the same compound, the GI50 [7] was 5.14 µM, the TGI [7] was over 100 µM and the GI50 [8] was 32.3 µM. For the same compound, the TGI [8] was over 100 µM, the GI50 [9] was 4.76 µM and the TGI [9] was 19.6 µM. The GI50 [10] was 3.04 µM and the TGI [10] was 8.26 µM.

`COc1ccc(-c2cc(-c3cn[nH]c3-c3ccccn3)ccn2)cc1` was tested, and the GI50 [1] was over 25 µM, the TGI [1] was over 25 µM and the GI50 [2] was over 25 µM. The TGI [2] was over 25 µM, the GI50 [3] was over 25 µM and the TGI [3] was over 25 µM. For the same compound, the GI50 [4] was over 25 µM, the TGI [4] was over 25 µM and the GI50 [5] was 20.4 µM. For the same compound, the TGI [5] was over 25 µM, the GI50 [6] was over 25 µM and the TGI [6] was over 25 µM. It also gave a GI50 [7] of over 25 µM, a TGI [7] of over 25 µM and a GI50 [8] of over 25 µM. For the same compound, the TGI [8] was over 25 µM, the GI50 [9] was over 25 µM and the TGI [9] was over 25 µM. For the same compound, the GI50 [10] was over 25 µM and the TGI [10] was over 25 µM.

In the case of `CC1(C)CC(=O)c2c(ccc(C(=O)C[C@H](N)CO)c2N)O1`, the GI50 [1] is reported as 0.647 µM and 0.117 µM, the TGI [1] is reported as 17.5 µM and > 33.3 µM and the GI50 [2] is reported as 5.03 µM and 0.594 µM. The TGI [2] was 17.5 µM and > 33.3 µM, the GI50 [3] was > 17.5 µM and 5.99 µM and the TGI [3] was > 17.5 µM and 28.8 µM. The TGI [4] was 17.5 µM and > 33.3 µM, the GI50 [5] was 1.73 µM and 0.409 µM and the TGI [5] was 17.5 µM and > 33.3 µM. For the same compound, the GI50 [6] was 0.768 µM and 0.114 µM, the TGI [6] was 17.5 µM and 9.09 µM and the GI50 [7] was 4.49 µM and 0.962 µM. For the same compound, the TGI [7] was 17.5 µM and > 33.3 µM, the GI50 [8] was 5.07 µM and 1.41 µM and the TGI [8] was 17.5 µM and > 33.3 µM. For the same compound, the GI50 [9] was 2.86 µM and 6.73 µM, the TGI [9] was 17.5 µM and > 33.3 µM and the GI50 [10] was over 33.3 µM. For the same compound, the TGI [10] was over 33.3 µM.

In the case of `CC(=O)OC1CCC2(C)C(CCC3C4CC=C(C(C)=O)C4(C)OC(=O)CC32)C1` (stereo unspecified), the GI50 [1] is reported as 1.52 µM, the TGI [1] is reported as 3.43 µM and the GI50 [2] is reported as 5.2 µM. For the same compound, the TGI [2] was 17.8 µM, the GI50 [3] was 2.05 µM and the TGI [3] was 4.77 µM. For the same compound, the GI50 [4] was 2.36 µM, the TGI [4] was 6.1 µM and the GI50 [5] was 2.05 µM. For the same compound, the TGI [5] was 7.89 µM, the GI50 [6] was 1.13 µM and the TGI [6] was 2.61 µM. For the same compound, the GI50 [7] was 1.3 µM, the TGI [7] was 2.61 µM and the GI50 [8] was 13.3 µM. The TGI [8] was 27.9 µM, the GI50 [9] was 6.59 µM and the TGI [9] was 19.9 µM. For the same compound, the GI50 [10] was 3.79 µM and the TGI [10] was 29.8 µM.

In the case of `ClC1=NC(Cl)C(Cl)=N/C1=N\c1ncn[nH]1` (stereo unspecified), the GI50 [1] is reported as 2.06 µM, the TGI [1] is reported as 4.3 µM and the GI50 [2] is reported as 2.24 µM. The TGI [2] was 5.22 µM, the GI50 [3] was 1.92 µM and the TGI [3] was 3.44 µM. The GI50 [4] was 1.9 µM, the TGI [4] was 3.43 µM and the GI50 [5] was 1.68 µM. For the same compound, the TGI [5] was 3.25 µM, the GI50 [6] was 1.95 µM and the TGI [6] was 4.68 µM. It also gave a GI50 [7] of 1.88 µM, a TGI [7] of 3.48 µM and a GI50 [8] of 11.8 µM. It also gave a TGI [8] of 25.4 µM, a GI50 [9] of 17.8 µM and a TGI [9] of 33.4 µM. It also gave a GI50 [10] of 14.3 µM and a TGI [10] of 61 µM.

In the case of `CC[C@H](C)[C@@H]1NC(=O)[C@H](Cc2ccc(O)cc2)N(C)C(=O)[C@H](Cc2ccccc2)NC(=O)CN(C)C(=O)[C@@H]2CCCN2C(=O)[C@@H](Cc2ccccc2)N(C)C(=O)[C@H](CC(C)C)NC1=O` (cyclo(F[NMeY]IL[dNMeF]P[Sar])), the GI50 [1] is reported as 0.199 µM, the TGI [1] is reported as 5.32 µM and the GI50 [2] is reported as 0.217 µM. It also gave a TGI [2] of 6.94 µM, a GI50 [3] of 1.22 µM and a TGI [3] of 9.65 µM. For the same compound, the GI50 [4] was 0.205 µM, the TGI [4] was 10.9 µM and the GI50 [5] was 2.63 µM. For the same compound, the TGI [5] was 13.1 µM, the GI50 [6] was 4.1 µM and the TGI [6] was 19.8 µM. The GI50 [7] was 2.34 µM, the TGI [7] was 11.6 µM and the GI50 [8] was 0.146 µM. For the same compound, the TGI [8] was 6.92 µM, the GI50 [9] was 0.695 µM and the TGI [9] was 6.11 µM. The GI50 [10] was 0.137 µM and the TGI [10] was 1.25 µM.

— PubChem BioAssay (NCI)
